COc1cc(/C=C/c2ccc(O)cc2)cc(OC)c1
Conditions | solubility (mole fraction)
in PEG-400, 298.2 K | 0.346
in PEG-400, 303.2 K | 0.351
in PEG-400, 308.2 K | 0.358
in PEG-400, 313.2 K | 0.366
in PEG-400, 318.2 K | 0.373

solubility (mole fraction)
Conditions | 298.2 K | 303.2 K | 308.2 K | 313.2 K | 318.2 K
in ethanol | 0.113 | 0.117 | 0.124 | 0.129 | 0.136
in propylene glycol | 0.25 | 0.26 | 0.272 | 0.281 | 0.29
in transcutol | 0.23 | 0.235 | 0.241 | 0.248 | 0.253
in water | 1.27e-06 | 1.62e-06 | 2.04e-06 | 2.53e-06 | 2.95e-06

— BigSolDB 2.1
